# Laboratory results reported in patent US6353089B1, “Method for stimulating CTLs with peptides” (Ludwig Institute for Cancer Research, priority 1994, dated 2002).
# Experiments:
# T2 cells = test: chromium release assay with CTL 4.2, T2 target cells; assay type: cell-based; conditions: for % 51CR Release: T2 + peptide
# Procedure: The CTL clone was obtained using T2 cells, in accordance with Houbiers et al., Eur. J. Immunol. 23: 2072 (1993), previously incorporated by reference in its entirety.
# Once the CTL clone was isolated, it was used in a chromium release assay in accordance with Boon, et al., J. Exp. Med. 152: 1184 (1980) the disclosure of which is incorporated by reference in its entirety. In addition to T2, cell line SK23, which is an HLA-A2 presenting line, was tested. The results are presented below:
# Effector Cell (E): CTL 4.2 Target (T): HLA-A2 cell plus SEQ ID NO: 4
# HLA-A2 molecules = target: T1, HLA-A2 molecules (Homo sapiens, UniProt P04439, D140Y/D185E/D98H/E176V/E277Q/G131W/G231S/I119V/I121R/I166T/I218V/L300P/L318F/N151K/N90K/P208A/P217A/Q86G/Q94H/R138H/R169H/T345S); test: HLA-A2 binding (stabilization) assay on T2 cells, mean fluorescence ratio; conditions: peptide 0.1 mM
# T1 construct: endogenous in cells; host or cells: 174 CEM.T2 (T2) cells
# Text: To determine whether or not peptides bound to HLA-A2 molecules, cell line 174 CEM.T2 (hereafter “T2”) was used. This cell line is described by Cerundolo et al., Nature 345: 449-452 (1990), and Spies et al., Nature 348: 744-747 (1990), the disclosures of which are incorporated by reference. This is a cell line deficient in the pathway which supplies peptides to the endoplasmic reticulum, the site of assembly of MHC class I heterodimers. It can assemble MHC class-I molecules, but these are unstable, and, on cell lysis, dissociate into free heavy and light chains during overnight incubation. The heterodimers can, however, be stabilized in vitro via addition of appropriate peptide ligands, as per Townsend et al., Nature 340: 443-448 (1989); Townsend et al., Cell 62: […] (1990); Cerundolo et al., supra; Schumacher et al., Nature 350: 703-706 (1991); Elliot et al., Nature 351: 402-406 (1991); Elvin et al., Eur. J. Immunol. 21 : 2025-2031 (1991). The thus stabilized molecules can be immunoprecipitated with antibodies specific for the MHC class-I molecule.
# In light of this background, the T2 cells were washed in serum free IMDM medium, and then 1.0×10^6 cells were suspended in 400 ul of the serum free IMDM medium, together with 100 ul synthetic peptide (final concentration: 0.1 mM, 1% DMSO). The mixture was incubated, overnight, at 37° C. Following incubation, the cells were washed and stained, successively, with HLA-A2 specific monoclonal antibody BB7.2, and FITC labelled, binding fragments of polyclonal goat anti-mouse IgG. Fluorescence ratio was calculated by the following formula: [formula]
# This yielded the “mean fluorescence ratio” or MFR. In accordance with Nijman et al, supra, an MFR greater than 1.5 indicates binding to HLA-A2.
# [1] = overnight 37° C., BB7.2 staining, MFR greater than 1.5 indicates binding to HLA-A2
sequence,measurement,setting,value
KIWEELSVL [Peptide M3-220.228],% 51CR Release,"T2 cells; effector CTL 4.2, E/T ratio 0.5",57%
same,% 51CR Release,"T2 cells; effector CTL 4.2, E/T ratio 1.9",84%
same,% 51CR Release,"T2 cells; effector CTL 4.2, E/T ratio 7.5",88%
same,% 51CR Release,"T2 cells; effector CTL 4.2, E/T ratio 30",91%
same,lysis of peptide-pulsed target cells by cytolytic T cell clone 4.2,"T2 cells; target cells (T2, SK23) pulsed with peptide, no lysis in the absence of the peptide",specifically lysed
TLVEVTLGEV [Peptide M3-44.53],MFR (mean fluorescence ratio),HLA-A2 molecules; [1],3.5
"ALVETSYVKV [Peptide M3-277.286, MAGE-3 derived peptide]",MFR (mean fluorescence ratio),HLA-A2 molecules; [1],"1.8 (and, less than"
IMPKAGLLI [Peptide M3-195.203],MFR (mean fluorescence ratio),HLA-A2 molecules; [1],2.37
"ALSRKVAEL [Peptide M3-108.116, MAGE-3 derived peptide]",MFR (mean fluorescence ratio),HLA-A2 molecules; in some of the experimental runs,< 1.5)
same,MFR (mean fluorescence ratio),HLA-A2 molecules; [1],"2.17 (and, less than"
